MIC, IC50 and melting point data for eight molecules are collected here from patent US11332477B2, “Nitrogen containing heterocycle substituted benzoxazine oxazolidinone compound and preparation method and use thereof” (INSTITUTE OF MATERIA MEDICA, CHINESE ACADEMY OF MEDICAL …, priority 2017, dated 2022).

≈ marks a conversion by molar mass, not a printed value.

Series [1] has as its system Mycobacterium tuberculosis H37Rv. The series can be described thus: Anti-tuberculosis activity test in vitro (Microplate Alamar Blue Assay, MABA). Format: cell-based. The settings on record: M. tuberculosis H37Rv, MABA, 7H9 medium, method says MIC90 was calculated, read-out: MIC.
The test system of series [2] is Vero cells. As to the kind of experiment: Cytotoxicity test (MTT). The series is classed as cell-based. The settings on record: Chlorocebus sabaeus; Vero cells, MTT, 48 hours of incubation, highest concentration 64 μg/mL; read-out: IC50.
Series [3] has as its system mitochondrial protein synthesis. As to the kind of experiment: Activity of inhibiting mitochondrial protein synthesis. The series is classed as biochemical. The settings on record: mitochondrial protein synthesis inhibition, Table 3. Here is the method: The experimental steps were carried out according to the literature (Antimicrobial Agents and Chemotherapy, 2006, 50 (6), 2042-2049).

On to `O=C(NC[C@@H]1OC(=O)N2c3cc(F)c(N4CCSCC4)cc3OC[C@@H]12)C1CC1` [Compound 6, N-(((3S,3aS)-8-Fluoro-1-oxo-7-thiomorpholino-3a,4-dihydro-1H,3H-benzo[b]oxazolo[3,4-d][1,4]oxazin-3-yl)methyl)cyclopropanecarboxamide], for which the melting point was 209 to 211 °C. In addition, the MIC in series [1] was 0.034 µg/mL (≈ 0.0834 µM). In addition, the IC50 in series [2] was more than 64 µg/mL. In series [3], this molecule registered an IC50 of more than 100 µg/mL.

`CC(=O)NC[C@@H]1OC(=O)N2c3cc(F)c(N4CC[S+]([O-])CC4)cc3OC[C@@H]12` [Compound 23, N-(((3S,3aS)-8-Fluoro-1-oxo-7-(1-oxidothiomorpholino)-3a,4-dihydro-1H,3H-benzo[b]oxazolo[3,4-d][1,4]oxazin-3-yl)methyl)acetamide] yielded a melting point of 214 to 216 °C. Also, in series [1], the MIC is 0.442 µg/mL (≈ 1.11 µM). Moreover, the IC50 in series [2] is more than 64 µg/mL. The IC50 in series [3] was 60.57 µg/mL (≈ 152 µM).

The molecule `O=C1O[C@@H](Cn2ccnn2)[C@@H]2COc3cc(N4CCSCC4)c(F)cc3N12` [Compound 12, (3S,3aS)-3-((1H-1,2,3-Triazol-1-yl)methyl)-8-fluoro-7-thiomorpholino-3a,4-dihydro-1H,3H-benzo[b]oxazolo[3,4-d][1,4]oxazin-1-one] displayed a melting point of 223 to 225 °C. Also, the MIC in series [1] was 0.227 µg/mL (≈ 0.58 µM). Moreover, in series [2], the IC50 is more than 64 µg/mL. Also, in series [3], the IC50 was more than 100 µg/mL.

`CC(=O)NC[C@@H]1OC(=O)N2c3cc(F)c(N4CCSCC4)cc3OC[C@@H]12` [Compound 4, N-(((3S,3aS)-8-Fluoro-1-oxo-7-thiomorpholino-3a,4-dihydro-1H,3H-benzo[b]oxazolo[3,4-d][1,4]oxazin-3-yl)methyl)acetamide]: the MIC in series [1] was 0.044 µg/mL (≈ 0.115 µM). Moreover, the IC50 in series [2] was more than 64 µg/mL; in series [3], 99.39 µg/mL (≈ 261 µM).

`O=C(NC[C@H]1OC(=O)N2c3cc(F)c(N4CCSCC4)cc3OC[C@H]12)C1CCC1` [Compound 29, N-(((3R,3aR)-8-Fluoro-1-oxo-7-thiomorpholino-3a,4-dihydro-1H,3H-benzo[b]oxazolo[3,4-d][1,4]oxazin-3-yl)methyl)cyclobutane carboxamide] gave a melting point of 183 to 185 °C. For the same molecule, in series [1], the MIC was 0.219 µg/mL (≈ 0.52 µM). Further, the IC50 in series [2] was more than 64 µg/mL. The same molecule gave an IC50 in series [3] of more than 100 µg/mL.

`O=C1O[C@@H](CNc2ccon2)[C@@H]2COc3cc(N4CCSCC4)c(F)cc3N12` [Compound 9, (3S,3aS)-8-Fluoro-3-((isoxazol-3-ylamino)methyl)-7-thiomorpholino-3a,4-dihydro-1H,3H-benzo[b]oxazolo[3,4-d][1,4]oxazin-1-one] displayed a melting point of 148 to 150 °C. Moreover, the MIC in series [1] is 0.025 µg/mL (≈ 0.0615 µM). The IC50 in series [2] was more than 64 µg/mL. This molecule also registered an IC50 in series [3] of more than 100 µg/mL.

The molecule `O=C(NC[C@@H]1OC(=O)N2c3cc(F)c(N4CCSCC4)cc3OC[C@@H]12)C1CCC1` [Compound 7, N-(((3S,3aS)-8-Fluoro-1-oxo-7-thiomorpholino-3a,4-dihydro-1H,3H-benzo[b]oxazolo[3,4-d][1,4]oxazin-3-yl)methyl)cyclobutanecarboxamide] yielded a melting point of 176 to 178 °C. The MIC in series [1] is 0.03 µg/mL (≈ 0.0712 µM). For the same molecule, in series [2], the IC50 is more than 64 µg/mL. The IC50 in series [3] was determined as 53.69 µg/mL (≈ 127 µM).

Regarding `CC(=O)NC[C@H]1OC(=O)N2c3cc(F)c(N4CCSCC4)cc3OC[C@H]12` [Compound 28, N-(((3R,3aR)-8-Fluoro-1-oxo-7-thiomorpholino-3a,4-dihydro-1H,3H-benzo[b]oxazolo[3,4-d][1,4]oxazin-3-yl)methyl)acetamide], the MIC in series [1] is 0.232 µg/mL (≈ 0.608 µM). The IC50 was more than 64 µg/mL in series [2] and more than 100 µg/mL in series [3].
